In patent US9730445B2, “Herbicidal compositions comprising 4-amino-3-chloro-5-fluoro-6-(4-chloro-2-fluoro-3-methoxyphenyl) pyridine-2-carboxylic acid or a derivative thereof and fungicides” (DOW AGROSCIENCES LLC, priority 2013, dated 2017):
“And” between values parts separate entries of the source, which are not always exact repeats. Equal values may be shown once.

Key:
[1] = tested on: ECHCG; test: Postemergence foliar-applied weed control, direct-seeded rice (greenhouse); type: in vivo, Echinochloa crus-galli (L.) P. Beauv. (barnyardgrass)
[2] = tested on: CYPRO; test: In-water applied weed control, transplanted paddy rice (greenhouse); type: in vivo, Cyperus rotundus L. (purple nutsedge); settings: 19 DAA
Procedure: Weed seeds or nutlets of the desired test plant species were planted in puddled soil (mud) prepared by mixing a shredded, non-sterilized mineral soil (50.5 percent silt, 25.5 percent clay, and 24 percent sand, with a pH of about 7.6 and an organic matter content of about 2.9 percent) and water at a 1:1 volumetric ratio. The prepared mud was dispensed in 365 mL aliquots into 16-ounce (oz.) non-perforated plastic pots with a surface area of 86.59 square centimeters (cm^2) leaving a headspace of 3 centimeters (cm) in each pot. Rice seeds were planted in Sun Gro MetroMix® 306 planting mixture, which typically has a pH of 6.0 to 6.8 and an organic matter content of about 30 percent, in plastic plug trays. Seedlings at the second or third leaf stage of growth were transplanted into 860 mL of mud contained in 32-oz. non-perforated plastic pots with a surface area of 86.59 cm^2 4 days prior to herbicide application. The paddy was created by filling the headspace of the pots with 2.5 to 3 cm of water. When required to ensure good germination and healthy plants, a fungicide treatment and/or other chemical or physical treatment was applied. The plants were grown for 4-22 days in a greenhouse with an approximate 14 hour (h) photoperiod which was maintained at about 29° C. during the day and about 26° C. during the night. Nutrients were added as Osmocote® (17:6:10, N:P:K+minor nutrients) at 2 g per cup. Water was added on a regular basis to maintain the paddy flood, and supplemental lighting was provided with overhead metal halide 1000-Watt lamps as necessary. The plants were employed for testing when they reached the first through fourth true leaf stage.
Treatments consisted of the acid or esters of 4-amino-3-chloro-5-fluoro-6-(4-chloro-2-fluoro-3-methoxy-phenyl)pyridine-2-carboxylic acid (compound A) each formulated as an SC (suspension concentrate) and various fungicidal components alone and in combination. Forms of compound A were applied on an acid equivalent basis.
Treatment requirements for each compound or fungicidal component were calculated based upon the rates being tested, the concentration of active ingredient or acid equivalent in the formulation, an application volume of 2 mL per component per pot, and an application area of 86.59 cm^2 per pot.
For formulated compounds, a measured amount was placed in an individual 100 or 200 mL glass vial and was dissolved in a volume of 1.25% (v/v) Agri-Dex® crop oil concentrate to obtain application solutions.
For technical grade compounds, a weighed amount was placed in an individual 100 to 200 mL glass vial and dissolved in a volume of acetone to obtain concentrated stock solutions.
Applications were made by injecting with a pipetter appropriate amounts of the application solutions, individually and sequentially, into the aqueous layer of the paddy. Control plants were treated in the same manner with the solvent blank. Applications were made so that all treated plant material received the same concentrations of acetone and crop oil concentrate.
The treated plants and control plants were placed in a greenhouse as described above and water was added as needed to maintain a paddy flood. After approximately 3 weeks the condition of the test plants as compared with that of the untreated plants was determined visually and scored on a scale of 0 to 100 percent where 0 corresponds to no injury or growth inhibition and 100 corresponds to complete kill.
Colby's equation was used to determine the herbicidal effects expected from the mixtures (Colby, S. R. Calculation of the synergistic and antagonistic response of herbicide combinations. Weeds 1967, 15, 20-22.).
The following equation was used to calculate the expected activity of mixtures containing two active ingredients, A and B: Expected=A+B−(A×B/100)

For COc1c(Cl)ccc(-c2nc(C(=O)OCc3ccccc3)c(Cl)c(N)c2F)c1F [Compound A Benzyl Ester], the “Visual Weed Control (%)—21 DAA ECHCG Obs” value ([1]; r9-11 ester 8/16/32 g ae/ha alone, r12-14 hexaconazole 25/50/100 g ai/ha alone, r15-23 ester 8/16/32 at each of 25, 50, 100) was 85% and 90% and 45%, the “Visual Weed Control (%)—21 DAA ECHCG Obs” value ([1]; r38-39 ester 8/16 g ae/ha alone, r40 isotianil 380 g ai/ha alone, r41-42 ester 8/16 + 380) was 45% and 85% and the “Visual Weed Control (%) - 21 DAA ECHCG Obs” value ([1]; r58-60 ester 8/16/32 g ae/ha alone, r61-63 difenoconazole 50/100/200 g ai/ha alone, r64-72 ester 8/16/32 at each of 50, 100, 200) was 70% and 60% and 90%. The “Visual Weed Control (%) - 19 DAA CYPRO Obs” value ([2]; Compound A Benzyl Ester 8 g ae/ha) was 20%, the “Visual Weed Control (%) - 19 DAA CYPRO Obs” value ([2]; Compound A Benzyl Ester 16 g ae/ha) was 88% and the “Visual Weed Control (%) - 19 DAA CYPRO Obs” value ([2]; Compound A Benzyl Ester 32 g ae/ha) was 87%.
